Results taken from ChEMBL document CHEMBL5442219.

What was measured:
Details in all cases: Compound concentration 10 µM
[1] = target: Sodium-dependent dopamine transporter (Homo sapiens) (UniProt Q01959)
[2] = target: Delta-type opioid receptor (Homo sapiens) (UniProt P41143)
[3] = target: Sigma non-opioid intracellular receptor 1 (Homo sapiens) (UniProt Q99720)
[4] = target: D(3) dopamine receptor (Homo sapiens) (UniProt P35462)
[5] = target: D(2) dopamine receptor (Homo sapiens) (UniProt P14416)
D(2) dopamine receptor (Homo sapiens), sequence (P14416 whole entry): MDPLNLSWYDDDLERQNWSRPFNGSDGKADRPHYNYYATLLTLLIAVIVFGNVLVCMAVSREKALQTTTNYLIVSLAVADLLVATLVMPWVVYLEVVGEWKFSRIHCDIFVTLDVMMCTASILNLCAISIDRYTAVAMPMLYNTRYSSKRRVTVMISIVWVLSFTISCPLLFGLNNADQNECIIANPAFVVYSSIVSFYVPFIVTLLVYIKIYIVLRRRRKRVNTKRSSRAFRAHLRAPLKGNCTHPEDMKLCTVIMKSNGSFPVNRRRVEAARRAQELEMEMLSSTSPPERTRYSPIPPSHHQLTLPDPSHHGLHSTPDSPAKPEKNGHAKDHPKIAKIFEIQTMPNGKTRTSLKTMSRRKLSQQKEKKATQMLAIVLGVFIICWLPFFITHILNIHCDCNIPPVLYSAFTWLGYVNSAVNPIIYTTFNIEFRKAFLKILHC

[6] = target: Histamine H4 receptor (Homo sapiens) (UniProt Q9H3N8)
[7] = target: T1, Alpha-1D adrenergic receptor (Homo sapiens) (UniProt P25100)
T1 sequence (whole entry): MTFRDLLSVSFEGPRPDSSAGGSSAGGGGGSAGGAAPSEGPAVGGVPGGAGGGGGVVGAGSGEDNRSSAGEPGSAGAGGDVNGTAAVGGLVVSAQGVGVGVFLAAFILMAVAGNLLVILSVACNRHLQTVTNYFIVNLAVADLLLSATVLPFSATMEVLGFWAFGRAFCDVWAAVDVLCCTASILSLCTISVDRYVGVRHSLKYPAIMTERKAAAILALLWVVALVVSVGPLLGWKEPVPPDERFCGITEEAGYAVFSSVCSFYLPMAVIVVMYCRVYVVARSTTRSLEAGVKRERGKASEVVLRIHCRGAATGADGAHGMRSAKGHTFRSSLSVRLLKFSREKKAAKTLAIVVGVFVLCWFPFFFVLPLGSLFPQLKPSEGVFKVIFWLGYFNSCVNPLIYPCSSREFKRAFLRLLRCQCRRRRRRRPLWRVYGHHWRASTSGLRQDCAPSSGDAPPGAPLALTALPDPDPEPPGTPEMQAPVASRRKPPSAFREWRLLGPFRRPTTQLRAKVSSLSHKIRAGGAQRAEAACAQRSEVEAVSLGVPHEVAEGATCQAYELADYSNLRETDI

[8] = target: Kappa-type opioid receptor (Homo sapiens) (UniProt P41145)
Kappa-type opioid receptor (Homo sapiens), sequence (P41145 whole entry): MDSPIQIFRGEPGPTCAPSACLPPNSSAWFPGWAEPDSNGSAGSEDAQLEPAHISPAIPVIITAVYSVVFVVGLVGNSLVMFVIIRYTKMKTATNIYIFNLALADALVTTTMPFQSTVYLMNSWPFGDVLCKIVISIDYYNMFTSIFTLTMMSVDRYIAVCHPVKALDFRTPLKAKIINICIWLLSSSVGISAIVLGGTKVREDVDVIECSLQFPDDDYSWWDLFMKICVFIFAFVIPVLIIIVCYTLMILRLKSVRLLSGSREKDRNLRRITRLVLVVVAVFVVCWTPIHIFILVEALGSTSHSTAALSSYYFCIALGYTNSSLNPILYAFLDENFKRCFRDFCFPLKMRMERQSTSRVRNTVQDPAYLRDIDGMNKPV

[9] = target: 5-hydroxytryptamine receptor 6 (Homo sapiens) (UniProt P50406)
[10] = target: T2, Alpha-2B adrenergic receptor (Homo sapiens) (UniProt P18089)
T2 sequence (whole entry): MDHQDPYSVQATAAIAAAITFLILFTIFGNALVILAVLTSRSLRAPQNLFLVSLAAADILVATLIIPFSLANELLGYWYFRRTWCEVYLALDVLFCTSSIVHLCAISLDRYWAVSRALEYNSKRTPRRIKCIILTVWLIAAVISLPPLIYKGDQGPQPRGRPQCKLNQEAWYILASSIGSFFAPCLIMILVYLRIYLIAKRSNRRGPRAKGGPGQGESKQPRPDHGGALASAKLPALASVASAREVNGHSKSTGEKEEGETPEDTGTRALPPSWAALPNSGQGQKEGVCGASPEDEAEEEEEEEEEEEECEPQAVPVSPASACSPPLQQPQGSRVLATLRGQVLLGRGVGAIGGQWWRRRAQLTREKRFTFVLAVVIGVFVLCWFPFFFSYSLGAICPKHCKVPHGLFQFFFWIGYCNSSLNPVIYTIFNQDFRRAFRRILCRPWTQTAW

[11] = target: T3, Muscarinic acetylcholine receptor M4 (Homo sapiens) (UniProt P08173)
T3 sequence (whole entry): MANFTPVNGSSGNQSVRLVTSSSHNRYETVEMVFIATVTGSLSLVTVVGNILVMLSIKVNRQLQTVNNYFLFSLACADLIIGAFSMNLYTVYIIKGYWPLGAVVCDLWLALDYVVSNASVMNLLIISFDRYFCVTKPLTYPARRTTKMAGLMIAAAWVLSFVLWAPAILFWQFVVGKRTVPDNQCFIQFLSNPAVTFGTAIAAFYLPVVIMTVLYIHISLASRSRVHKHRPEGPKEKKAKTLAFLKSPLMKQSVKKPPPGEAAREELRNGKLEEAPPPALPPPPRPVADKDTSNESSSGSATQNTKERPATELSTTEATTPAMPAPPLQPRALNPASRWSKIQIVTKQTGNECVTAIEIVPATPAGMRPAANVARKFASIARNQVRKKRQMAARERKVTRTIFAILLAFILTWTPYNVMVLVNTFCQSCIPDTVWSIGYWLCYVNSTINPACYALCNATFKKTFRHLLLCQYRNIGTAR

[12] = target: 5-hydroxytryptamine receptor 2A (Homo sapiens) (UniProt P28223)
5-hydroxytryptamine receptor 2A (Homo sapiens), sequence (P28223 whole entry): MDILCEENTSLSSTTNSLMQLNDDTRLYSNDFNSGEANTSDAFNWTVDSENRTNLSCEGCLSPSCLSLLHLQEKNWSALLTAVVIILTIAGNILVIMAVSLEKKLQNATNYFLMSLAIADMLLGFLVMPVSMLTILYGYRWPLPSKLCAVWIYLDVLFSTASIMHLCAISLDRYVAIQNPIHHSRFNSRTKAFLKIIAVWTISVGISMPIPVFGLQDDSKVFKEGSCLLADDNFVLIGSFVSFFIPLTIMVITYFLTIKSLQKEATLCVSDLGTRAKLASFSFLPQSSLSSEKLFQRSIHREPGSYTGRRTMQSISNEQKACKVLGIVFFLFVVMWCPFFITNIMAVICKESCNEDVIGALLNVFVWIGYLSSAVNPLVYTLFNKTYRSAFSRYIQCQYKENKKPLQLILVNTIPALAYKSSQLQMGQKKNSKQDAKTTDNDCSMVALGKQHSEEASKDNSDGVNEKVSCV

[13] = target: T4, 5-hydroxytryptamine receptor 1A (Homo sapiens) (UniProt P08908)
T4 sequence (whole entry): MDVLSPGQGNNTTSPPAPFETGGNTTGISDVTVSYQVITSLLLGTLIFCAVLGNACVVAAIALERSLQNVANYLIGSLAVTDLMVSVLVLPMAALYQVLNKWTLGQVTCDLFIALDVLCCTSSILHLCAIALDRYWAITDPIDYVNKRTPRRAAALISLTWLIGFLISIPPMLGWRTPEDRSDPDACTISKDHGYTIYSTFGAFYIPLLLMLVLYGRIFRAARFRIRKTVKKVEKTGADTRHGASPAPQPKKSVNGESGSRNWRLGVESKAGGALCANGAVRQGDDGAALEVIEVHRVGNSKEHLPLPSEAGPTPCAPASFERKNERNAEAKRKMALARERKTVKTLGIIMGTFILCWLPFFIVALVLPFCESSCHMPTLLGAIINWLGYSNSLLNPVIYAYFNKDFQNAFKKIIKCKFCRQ

[14] = target: Histamine H3 receptor (Homo sapiens) (UniProt Q9Y5N1)
Histamine H3 receptor (Homo sapiens), sequence (Q9Y5N1 whole entry): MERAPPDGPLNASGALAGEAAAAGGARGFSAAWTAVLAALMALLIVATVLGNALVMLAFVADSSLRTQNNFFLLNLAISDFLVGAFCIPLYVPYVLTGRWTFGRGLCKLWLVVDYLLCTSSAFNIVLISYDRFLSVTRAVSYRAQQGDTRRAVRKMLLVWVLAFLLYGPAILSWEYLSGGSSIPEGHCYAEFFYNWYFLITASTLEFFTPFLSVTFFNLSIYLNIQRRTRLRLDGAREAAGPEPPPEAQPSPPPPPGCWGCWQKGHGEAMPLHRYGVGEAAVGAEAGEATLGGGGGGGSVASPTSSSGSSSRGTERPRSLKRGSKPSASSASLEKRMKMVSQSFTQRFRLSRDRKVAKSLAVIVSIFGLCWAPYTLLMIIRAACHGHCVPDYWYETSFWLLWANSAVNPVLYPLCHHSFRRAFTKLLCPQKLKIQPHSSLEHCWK

[15] = target: Histamine H1 receptor (Homo sapiens) (UniProt P35367)
[16] = target: D(1B) dopamine receptor (Homo sapiens) (UniProt P21918)
D(1B) dopamine receptor (Homo sapiens), sequence (P21918 whole entry): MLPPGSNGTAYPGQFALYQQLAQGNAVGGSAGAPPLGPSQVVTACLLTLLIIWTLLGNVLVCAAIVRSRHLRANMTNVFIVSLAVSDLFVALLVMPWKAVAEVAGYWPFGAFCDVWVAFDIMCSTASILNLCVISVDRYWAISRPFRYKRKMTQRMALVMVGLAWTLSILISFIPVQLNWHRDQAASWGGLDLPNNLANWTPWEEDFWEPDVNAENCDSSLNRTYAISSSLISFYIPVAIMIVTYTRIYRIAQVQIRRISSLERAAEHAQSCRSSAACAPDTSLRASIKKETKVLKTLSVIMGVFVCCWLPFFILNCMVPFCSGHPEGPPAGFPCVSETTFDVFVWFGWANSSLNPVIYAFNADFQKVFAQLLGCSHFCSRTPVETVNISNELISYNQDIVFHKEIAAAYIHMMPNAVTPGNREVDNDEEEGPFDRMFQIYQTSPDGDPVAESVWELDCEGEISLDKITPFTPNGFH

[17] = target: D(1A) dopamine receptor (Homo sapiens) (UniProt P21728)
D(1A) dopamine receptor (Homo sapiens), sequence (P21728 whole entry): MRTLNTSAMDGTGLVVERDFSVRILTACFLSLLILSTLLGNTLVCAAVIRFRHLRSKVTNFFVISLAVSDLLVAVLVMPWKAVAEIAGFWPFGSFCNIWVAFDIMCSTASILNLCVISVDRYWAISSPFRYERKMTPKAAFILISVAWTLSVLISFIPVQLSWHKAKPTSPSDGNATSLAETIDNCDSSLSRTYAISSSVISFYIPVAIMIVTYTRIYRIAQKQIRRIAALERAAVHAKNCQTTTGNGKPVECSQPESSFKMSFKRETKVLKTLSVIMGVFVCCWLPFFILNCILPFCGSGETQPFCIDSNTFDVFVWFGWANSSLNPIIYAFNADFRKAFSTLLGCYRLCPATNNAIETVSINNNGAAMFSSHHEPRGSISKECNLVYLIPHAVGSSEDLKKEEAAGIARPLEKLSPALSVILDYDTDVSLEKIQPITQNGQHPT

[18] = target: 5-hydroxytryptamine receptor 7 (Homo sapiens) (UniProt P34969)
[19] = target: Sodium-dependent noradrenaline transporter (Homo sapiens) (UniProt P23975)
Sodium-dependent noradrenaline transporter (Homo sapiens), sequence (P23975 whole entry): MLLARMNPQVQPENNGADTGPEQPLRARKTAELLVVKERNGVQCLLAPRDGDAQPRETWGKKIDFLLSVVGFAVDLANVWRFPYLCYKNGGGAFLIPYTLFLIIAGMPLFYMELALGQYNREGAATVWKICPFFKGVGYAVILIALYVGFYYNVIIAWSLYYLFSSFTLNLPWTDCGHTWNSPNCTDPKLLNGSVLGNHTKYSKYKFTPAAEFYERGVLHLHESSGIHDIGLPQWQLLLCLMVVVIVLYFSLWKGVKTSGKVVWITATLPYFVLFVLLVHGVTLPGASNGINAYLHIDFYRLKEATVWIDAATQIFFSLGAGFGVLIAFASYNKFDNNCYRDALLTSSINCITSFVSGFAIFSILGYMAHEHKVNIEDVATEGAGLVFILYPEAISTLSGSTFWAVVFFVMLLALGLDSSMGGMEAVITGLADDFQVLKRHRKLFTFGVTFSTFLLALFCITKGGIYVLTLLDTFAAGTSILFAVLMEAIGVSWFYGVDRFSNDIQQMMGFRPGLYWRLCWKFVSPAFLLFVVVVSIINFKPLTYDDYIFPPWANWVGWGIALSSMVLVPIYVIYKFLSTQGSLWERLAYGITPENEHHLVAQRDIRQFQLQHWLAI

Sodium-dependent dopamine transporter (Homo sapiens), sequence (Q01959 whole entry): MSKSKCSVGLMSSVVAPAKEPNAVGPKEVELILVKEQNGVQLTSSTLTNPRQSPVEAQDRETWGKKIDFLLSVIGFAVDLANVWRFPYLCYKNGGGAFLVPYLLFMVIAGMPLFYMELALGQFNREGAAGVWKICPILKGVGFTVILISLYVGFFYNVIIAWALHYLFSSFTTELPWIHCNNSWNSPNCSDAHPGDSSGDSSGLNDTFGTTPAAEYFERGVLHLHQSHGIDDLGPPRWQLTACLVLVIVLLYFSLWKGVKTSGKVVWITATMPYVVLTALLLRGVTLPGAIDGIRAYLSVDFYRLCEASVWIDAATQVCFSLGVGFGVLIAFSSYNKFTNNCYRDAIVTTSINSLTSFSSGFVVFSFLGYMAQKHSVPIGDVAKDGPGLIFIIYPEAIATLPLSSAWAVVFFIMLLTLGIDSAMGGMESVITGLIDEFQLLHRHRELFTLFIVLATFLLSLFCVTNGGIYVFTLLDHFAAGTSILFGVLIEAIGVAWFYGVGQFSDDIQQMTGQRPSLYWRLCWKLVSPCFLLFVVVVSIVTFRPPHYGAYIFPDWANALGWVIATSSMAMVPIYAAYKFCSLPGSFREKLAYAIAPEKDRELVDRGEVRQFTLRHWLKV
Sigma non-opioid intracellular receptor 1 (Homo sapiens), sequence (Q99720 whole entry): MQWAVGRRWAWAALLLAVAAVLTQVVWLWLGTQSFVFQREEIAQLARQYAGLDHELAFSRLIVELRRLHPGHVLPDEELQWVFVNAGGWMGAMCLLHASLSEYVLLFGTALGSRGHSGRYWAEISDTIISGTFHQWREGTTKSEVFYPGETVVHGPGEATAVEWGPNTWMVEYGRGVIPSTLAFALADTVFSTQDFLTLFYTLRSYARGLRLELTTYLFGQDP
Delta-type opioid receptor (Homo sapiens), sequence (P41143 whole entry): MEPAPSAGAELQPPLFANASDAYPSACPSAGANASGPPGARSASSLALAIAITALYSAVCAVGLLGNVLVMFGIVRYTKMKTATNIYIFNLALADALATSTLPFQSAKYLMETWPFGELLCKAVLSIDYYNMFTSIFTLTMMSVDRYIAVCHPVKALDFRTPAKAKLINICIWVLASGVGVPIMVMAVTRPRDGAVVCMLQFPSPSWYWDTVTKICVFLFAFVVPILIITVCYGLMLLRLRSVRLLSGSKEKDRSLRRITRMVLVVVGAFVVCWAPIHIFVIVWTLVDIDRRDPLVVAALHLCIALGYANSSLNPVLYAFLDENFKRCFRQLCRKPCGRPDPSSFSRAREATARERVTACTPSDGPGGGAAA
D(3) dopamine receptor (Homo sapiens), sequence (P35462 whole entry): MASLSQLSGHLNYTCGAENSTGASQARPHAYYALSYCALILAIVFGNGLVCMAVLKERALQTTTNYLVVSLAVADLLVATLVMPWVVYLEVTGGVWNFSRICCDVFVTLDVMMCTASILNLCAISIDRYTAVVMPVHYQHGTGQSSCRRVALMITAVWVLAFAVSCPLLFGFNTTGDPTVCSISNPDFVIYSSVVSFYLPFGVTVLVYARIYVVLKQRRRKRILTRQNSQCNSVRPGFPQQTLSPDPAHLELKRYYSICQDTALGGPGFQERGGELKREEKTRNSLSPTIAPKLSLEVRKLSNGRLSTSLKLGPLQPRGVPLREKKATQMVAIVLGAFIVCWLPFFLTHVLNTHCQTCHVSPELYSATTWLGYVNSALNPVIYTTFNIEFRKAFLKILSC

| Compound | inhibition [1] [%] | inhibition [2] [%] | inhibition [3] [%] | inhibition [4] [%] | inhibition [5] [%] | inhibition [6] [%] | inhibition [7] [%] | inhibition [8] [%] | inhibition [9] [%] | inhibition [10] [%] | inhibition [11] [%] | inhibition [12] [%] | inhibition [13] [%] | inhibition [14] [%] | inhibition [15] [%] | inhibition [16] [%] | inhibition [17] [%] | inhibition [18] [%] | inhibition [19] [%] |
| --- | --- | --- | --- | --- | --- | --- | --- | --- | --- | --- | --- | --- | --- | --- | --- | --- | --- | --- | --- |
| CC(C)NC(=O)c1ccc(C#Cc2ccncc2)cn1 | 24.2 | -3.71 | 68.4 | 26.8 | -3.71 | -7.18 | 13.3 | -1.6 | -2.79 | -0.82 | 30.9 | 4.54 | – | – | – | – | – | – | – |
| O=C(O)COc1cccc(CN(Cc2ccc(-n3cccn3)cc2)S(=O)(=O)c2cccnc2)c1 | – | 22.4 | 5.04 | 5.78 | 7.85 | -9.76 | – | -1.11 | -0.81 | -5.85 | -2.13 | 15.6 | -0.9 | 6.23 | 1.83 | 2.14 | – | – | – |
| CCOC(=O)c1cc(C#N)c(N2CCC(C(=O)NS(=O)(=O)Cc3ccccc3)CC2)nc1C | 32.9 | -8.38 | 44.3 | 50.8 | 13.7 | 6.28 | 29.5 | 3.74 | 9.24 | -7.37 | 18.3 | 5.11 | – | 15 | -6.11 | – | 0.26 | – | – |
| CCC[C@H](Oc1cc(C)c(-n2cc(C(F)(F)F)cn2)c(C)c1)c1ccc(C(=O)NCCC(=O)O)cc1 | – | 27 | 1.84 | – | 8.21 | – | – | 40.7 | -2.41 | -4.35 | 3.44 | 4.78 | -2.47 | 11.1 | 7.56 | 11.7 | 20.2 | -2.87 | – |
| Cc1cn2cc(CC(=O)N3CCC4(CC3)CN(Cc3ccc(-n5nccn5)cc3Cl)C4)nc2s1 | 44.2 | 18.8 | 52.1 | 71.1 | 25.1 | -5.48 | 13.3 | 35.7 | 17.5 | 11 | 87.5 | -2.36 | 13 | 3.15 | 30.4 | -4.31 | -5.26 | – | 44.3 |
| CN(C)S(=O)(=O)c1ccc(NC(=S)N2CCC(C(O)(c3ccccc3)c3ccccc3)CC2)cc1 | 33.1 | 10.2 | 45.3 | 21.5 | 23.4 | -3.58 | – | 12.3 | 8.14 | 14.4 | -6.86 | 11 | 10.5 | – | 6.41 | 5.17 | 21.9 | – | 15.8 |
| CCCn1c(=O)c2nc(C34CC5CC(CC3C5)C4)[nH]c2n(CCC)c1=O | 50 | 11.3 | 32.7 | -4.54 | – | 6.77 | -8.33 | 4.62 | -4.94 | 6.22 | – | -7.63 | -4.72 | -9.29 | 8.71 | 23.9 | – | 5.98 | – |
| O=C1O[C@]2(CC[C@H](C(=O)Nc3ccn(-c4ccccc4F)n3)CC2)c2cnccc21 | – | -5.86 | 4.97 | 73.2 | 10.1 | – | – | -6.46 | 0.42 | – | – | 22.2 | 19.7 | 2.41 | 7.78 | -8.27 | – | – | – |
| CCCNS(=O)(=O)Nc1ncnc(OCCOc2ncc(Br)cn2)c1-c1ccc(Br)cc1 | 31.1 | 23.6 | 15.8 | 54.8 | 15.2 | 8.98 | 0.01 | 1.8 | 2.99 | – | 6.06 | 42.8 | 9.06 | 1.52 | 11.5 | -1.25 | – | – | 53.5 |
| O=C(O)CC1CCC2(CC1)CCN(c1cc(OC(F)(F)F)ccc1Cl)CC2 | 7.81 | -0.66 | -0.46 | 65.5 | 18.6 | 9.28 | – | 10.9 | 14.2 | – | 7.8 | 26.1 | -1.2 | 7.59 | 31.1 | -2.48 | – | – | 13.3 |
| CC(C)Oc1ccccc1C(=O)Nc1ccccc1C(=O)Nc1cccc(S(=O)(=O)C(F)(F)F)c1 | – | -2.57 | – | 23.1 | 7.06 | – | – | – | 36.8 | – | -2.68 | 87.8 | 6.76 | -5.72 | 2.1 | 4.49 | – | -3.5 | – |
| Cc1c(F)cccc1NC(=O)Nc1ccc(Cl)c(S(=O)(=O)[C@H]2CCCNC2)c1O | 14.9 | -5.71 | 9.71 | 25.8 | 11.7 | – | – | -8.19 | -2.87 | 3.18 | -3.99 | -0.14 | – | – | 25.6 | 3.67 | – | -3.91 | – |
